The values below come from US8604061B2, “2-aminooxazolines as TAAR1 ligands” (Hoffmann-La Roche Inc., priority 2007, dated 2013).

For this assay, the target named is TAAR1 (Mus musculus, UniProt Q923Y8). As to the kind of experiment: TAAR1 radioligand binding, membranes of stably transfected HEK293 cells (mouse). The procedure: For the construction of expression plasmids the coding sequences of human, rat and mouse TAAR 1 were amplified from genomic DNA essentially as described by Lindemann et al.. The Expand High Fidelity PCR System (Roche Diagnostics) was used with 1.5 mM Mg^2+ and purified PCR products were cloned into pCR2.1-TOPO cloning vector (Invitrogen) following the instructions of the manufacturer. PCR products were subcloned into the pIRESneo2 vector (BD Clontech, Palo Alto, Calif.), and expression vectors were sequence verified before introduction in cell lines.
HEK293 cells (ATCC #CRL-1573) were cultured essentially as described Lindemann et al. (2005). For the generation of stably transfected cell lines HEK293 cells were transfected with the pIRESneo2 expression plasmids containing the TAAR coding sequences (described above) with Lipofectamine 2000 (Invitrogen) according to the instructions of the manufacturer, and 24 hrs post transfection the culture medium was supplemented with 1 mg/ml G418 (Sigma, Buchs, Switzerland). After a culture period of about 10 d clones were isolated, expanded and tested for responsiveness to trace amines (all compounds purchased from Sigma) with the cAMP Biotrak Enzyme immunoassay (EIA) System (Amersham) following the non-acetylation EIA procedure provided by the manufacturer.
Cells at confluence were rinsed with ice-cold phosphate buffered saline without Ca^2+ and Mg^2+ containing 10 mM EDTA and pelleted by centrifugation at 1000 rpm for 5 min at 4° C. The pellet was then washed twice with ice-cold phosphate buffered saline and cell pellet was frozen immediately by immersion in liquid nitrogen and stored until use at −80° C. Cell pellet was then suspended in 20 ml HEPES-NaOH (20 mM), pH 7.4 containing 10 mM EDTA, and homogenized with a Polytron (PT 3000, Kinematica) at 10,000 rpm for 10 s. The homogenate was centrifuged at 48,000×g for 30 min at 4° C. and the pellet resuspended in 20 ml HEPES-NaOH (20 mM), pH 7.4 containing 0.1 mM EDTA (buffer A), and homogenized with a Polytron at 10,000 rpm for 10 s. The homogenate was then centrifuged at 48,000×g for 30 min at 4° C. and the pellet resuspended in 20 ml buffer A, and homogenized with a Polytron at 10,000 rpm for 10 s. Protein concentration was determined by the method of Pierce (Rockford, Ill.). The homogenate was then centrifuged at 48,000×g for 10 min at 4° C., resuspended in HEPES-NaOH (20 mM), pH 7.0 including MgCl2 (10 mM) and […] homogenized with a Polytron at 10,000 rpm for 10 s.
Binding assay was performed at 4° C. in a final volume of 1 ml, and with an incubation time of 30 min. […] Non-specific binding was defined as the amount of [^3H]-rac-2-(1,2,3,4-tetrahydro-1-naphthyl)-2-imidazoline bound in the presence of the appropriate unlabelled ligand (10 μM). Competing ligands were tested in a wide range of concentrations (10 pM-30 μM). […] Each experiment was performed in duplicate. All incubations were terminated by rapid filtration through UniFilter-96 plates (Packard Instrument Company) and glass filter GF/C, pre-soaked for at least 2 h in polyethylenimine 0.3%, and using a Filtermate 96 Cell Harvester (Packard Instrument Company). The tubes and filters were then washed 3 times with 1 ml aliquots of cold buffer B. Filters were not dried and soaked in Ultima gold (45 μl/well, Packard Instrument Company) and bound radioactivity was counted by a TopCount Microplate Scintillation Counter (Packard Instrument Company).

The mark [1] stands for this setting: mouse/rat, cell not marked 'rat', radioligand [3H]-rac-2-(1,2,3,4-tetrahydro-1-naphthyl)-2-imidazoline, 4° C., read-out: Ki (μM) mouse/rat.

Like-named read-outs stand apart in the source and are kept apart here.

Regarding `CCC(C[C@H]1COC(N)=N1)c1cc(F)cc(F)c1` (stereo partly drawn) [Example 203, (S)-4-[2-(3,5-Difluoro-phenyl)-butyl]-4,5-dihydro-oxazol-2-ylamine], the Ki under setting [1] is 0.0039 µM.

Take `NC1=NC(c2ccc(Br)c(F)c2)CO1` (racemic) [Example 252, (RS)-4-(4-Bromo-3-fluoro-phenyl)-4,5-dihydro-oxazol-2-ylamine]: the Ki was found to be 0.0008 µM.

`NC1=N[C@@H](c2cc(F)cc(F)c2F)CO1` [Example 118, (S)-4-(2,3,5-Trifluoro-phenyl)-4,5-dihydro-oxazol-2-ylamine]: the Ki under setting [1] was determined as 0.003 µM. Same read-out and setting: the same measure for `NC1=N[C@@H](c2ccc(F)cc2C(F)(F)F)CO1` [Example 248, (+)-(S)-4-(4-Fluoro-2-trifluoromethyl-phenyl)-4,5-dihydro-oxazol-2-ylamine]: 0.0029 µM.

The compound `NC1=NC(c2cc(F)ccc2F)CO1` (racemic) [Example 16, (RS)-4-(2,5-Difluoro-phenyl)-4,5-dihydro-oxazol-2-ylamine] had a Ki of 0.0048 µM. As to `NC1=N[C@@H](CCc2cccc(Cl)c2)CO1` [Example 232, (S)-4-[2-(3-Chloro-phenyl)-ethyl]-4,5-dihydro-oxazol-2-ylamine], the Ki under setting [1] amounted to 0.0006 µM. For `NC1=NC(c2ccccc2C(F)(F)F)CO1` (racemic) [Example 6, (RS)-4-(2-Trifluoromethyl-phenyl)-4,5-dihydro-oxazol-2-ylamine], the Ki was 0.0038 µM. `NC1=N[C@@H](c2ccc(Cl)cc2)CO1` [Example 169, (S)-4-(4-Chloro-phenyl)-4,5-dihydro-oxazol-2-ylamine]: under setting [1], the Ki came out at 0.0014 µM.

For `COc1ccc([C@H]2COC(N)=N2)c(C(F)(F)F)c1` [Example 240, (+)-(S)-4-(4-Methoxy-2-trifluoromethyl-phenyl)-4,5-dihydro-oxazol-2-ylamine], the Ki under setting [1] was found to be 0.0032 µM. On the same count and under the same terms, the same measure for `NC1=N[C@@H](c2ccc(Cl)cc2Cl)CO1` [Example 296, (+)-(S)-4-(2,4-Dichloro-phenyl)-4,5-dihydro-oxazol-2-ylamine]: 0.0004 µM; for `CCC(C[C@H]1COC(N)=N1)c1ccc(Cl)c(Cl)c1` (stereo partly drawn) [Example 222, (S)-4-[2-(3,4-Dichloro-phenyl)-butyl]-4,5-dihydro-oxazol-2-ylamine]: 0.0048 µM.

As for `NC1=N[C@@H](c2ccc(Cl)cc2C(F)(F)F)CO1` [Example 238, (+)-(S)-4-(4-Chloro-2-trifluoromethyl-phenyl)-4,5-dihydro-oxazol-2-ylamine], the Ki under setting [1] was determined as 0.003 µM. With `COc1ccc(C2COC(N)=N2)cc1C` (racemic) [Example 35, (RS)-4-(4-Methoxy-3-methyl-phenyl)-4,5-dihydro-oxazol-2-ylamine], the Ki amounted to 0.0033 µM. `NC1=NC(c2ccc(F)c(F)c2F)CO1` (racemic) [Example 17, (RS)-4-(2,3,4-Trifluoro-phenyl)-4,5-dihydro-oxazol-2-ylamine] showed a Ki of 0.0057 µM. Still for that read-out and setting: as for `NC1=NC(C2CCc3ccccc3C2)CO1` (racemic) [Example 84, (RS)-4-(1,2,3,4-Tetrahydro-naphthalen-2-yl)-4,5-dihydro-oxazol-2-ylamine], the figure is 0.0017 µM. Take `CC(C[C@H]1COC(N)=N1)c1ccc(Cl)c(Cl)c1` (stereo partly drawn) [Example 221, (S)-4-[2-(3,4-Dichloro-phenyl)-propyl]-4,5-dihydro-oxazol-2-ylamine]: the Ki under setting [1] was found to be 0.0022 µM. On the same count and under the same terms, the same measure for `NC1=N[C@@H](CCc2ccc(C(F)(F)F)cc2)CO1` [Example 119, (S)-4-[2-(4-Trifluoromethyl-phenyl)-ethyl]-4,5-dihydro-oxazol-2-ylamine]: 0.0026 µM. Same read-out and setting: as for `Cc1ccc(CC[C@H]2COC(N)=N2)cc1` [Example 116, (S)-4-(2-p-Tolyl-ethyl)-4,5-dihydro-oxazol-2-ylamine], the figure is 0.0012 µM. On the same count and under the same terms, as for `NC1=N[C@H](c2ccc(Cl)cc2Cl)CO1` [Example 295, (−)-(R)-4-(2,4-Dichloro-phenyl)-4,5-dihydro-oxazol-2-ylamine], the figure is 0.0082 µM. With `NC1=N[C@@H](CSc2ccc(Cl)cc2)CO1` [Example 370, (R)-4-(4-Chloro-phenylsulfanylmethyl)-4,5-dihydro-oxazol-2-ylamine], the Ki under setting [1] turned out to be 0.0037 µM. `NC1=NC(c2cc(Cl)cc(Cl)c2)CO1` (racemic) [Example 189, (RS)-4-(3,5-Dichloro-phenyl)-4,5-dihydro-oxazol-2-ylamine]: the Ki was 0.0008 µM. For the compound `NC1=N[C@@H](CCc2ccncc2F)CO1` [Example 158, (S)-4-[2-(3-Fluoro-pyridin-4-yl)-ethyl]-4,5-dihydro-oxazol-2-ylamine], the Ki under setting [1] turned out to be 0.0068 µM.

Consider `NC1=N[C@@H](CC2(c3ccc(Cl)cc3)CC2)CO1` [Example 257, (S)-4-[1-(4-Chloro-phenyl)-cyclopropylmethyl]-4,5-dihydro-oxazol-2-ylamine], for which, under setting [1], the Ki was 0.0074 µM. For the compound `NC1=N[C@@H](c2cc(F)c(F)c(F)c2)CO1` [Example 170, (S)-4-(3,4,5-Trifluoro-phenyl)-4,5-dihydro-oxazol-2-ylamine], the Ki under setting [1] was found to be 0.0011 µM. `NC1=NC(c2ccc(Cl)cc2C(F)(F)F)CO1` (racemic) [Example 226, (RS)-4-(4-Chloro-2-trifluoromethyl-phenyl)-4,5-dihydro-oxazol-2-ylamine] registered a Ki of 0.0054 µM. As to `NC1=N[C@@H](c2cc(Cl)ccc2F)CO1` [Example 190, (+)-(S)-4-(5-Chloro-2-fluoro-phenyl)-4,5-dihydro-oxazol-2-ylamine], the Ki under setting [1] was found to be 0.0008 µM. The same measure, in the same setting: as for `NC1=N[C@@H](CCc2ccccc2C(F)(F)F)CO1` [Example 110, (S)-4-[2-(2-Trifluoromethyl-phenyl)-ethyl]-4,5-dihydro-oxazol-2-ylamine], the figure is 0.0018 µM; as for `C[C@]1(c2ccc(F)cc2F)COC(N)=N1` [Example 206, (S)-4-(2,4-Difluoro-phenyl)-4-methyl-4,5-dihydro-oxazol-2-ylamine], 0.0032 µM. For `NC1=NC(c2ccc(Cl)cc2Cl)CO1` (racemic) [Example 235, (RS)-4-(2,4-Dichloro-phenyl)-4,5-dihydro-oxazol-2-ylamine], the Ki is 0.001 µM. For the compound `C[C@]1(c2ccc(Cl)c(Cl)c2)COC(N)=N1` [Example 135, (S)-4-(3,4-Dichloro-phenyl)-4-methyl-4,5-dihydro-oxazol-2-ylamine], the Ki under setting [1] was found to be 0.0009 µM.

`NC1=NC(c2cc(Cl)ccc2Cl)CO1` (racemic) [Example 260, (RS)-4-(2,5-Dichloro-phenyl)-4,5-dihydro-oxazol-2-ylamine] returned a Ki of 0.0013 µM. For `Cc1cc([C@@]2(C)COC(N)=N2)c(F)cc1Cl` [Example 308, (S)-4-(4-Chloro-2-fluoro-5-methyl-phenyl)-4-methyl-4,5-dihydro-oxazol-2-ylamine], the Ki under setting [1] is 0.0009 µM. Same read-out and setting: the same measure for `NC1=NC(CCC2CCCCC2)CO1` (stereo in doubt) [Example 332, (S)-4-(2-Cyclohexyl-ethyl)-4,5-dihydro-oxazol-2-ylamine]: 0.0061 µM.

Compound `NC1=NC(c2ccc3c(c2)OCCO3)CO1` (racemic) [Example 32, (RS)-4-(2,3-Dihydro-benzo[1,4]dioxin-6-yl)-4,5-dihydro-oxazol-2-ylamine] showed a Ki of 0.0029 µM. With `NC1=N[C@@H](c2cccc(Br)c2)CO1` [Example 198, (+)-(S)-4-(3-Bromo-phenyl)-4,5-dihydro-oxazol-2-ylamine], the Ki under setting [1] was 0.002 µM.
